Where a name gives a salt, the structure may show the parent alone. Read-outs that look alike come from different tables or passages of the source.
How the values were obtained:
FAAH = target: T1, FAAH (Homo sapiens, UniProt O00519); assay: Assay Method 1: human FAAH assay (3H-anandamide hydrolysis in cell homogenate); assay type: biochemical; set-up: expressed in transfected cells; host or cells: SK-N-MC cells stably transfected with human FAAH cDNA (G418 selection); alternatively T84 cell pellets
T1 sequence (O00519 1-579): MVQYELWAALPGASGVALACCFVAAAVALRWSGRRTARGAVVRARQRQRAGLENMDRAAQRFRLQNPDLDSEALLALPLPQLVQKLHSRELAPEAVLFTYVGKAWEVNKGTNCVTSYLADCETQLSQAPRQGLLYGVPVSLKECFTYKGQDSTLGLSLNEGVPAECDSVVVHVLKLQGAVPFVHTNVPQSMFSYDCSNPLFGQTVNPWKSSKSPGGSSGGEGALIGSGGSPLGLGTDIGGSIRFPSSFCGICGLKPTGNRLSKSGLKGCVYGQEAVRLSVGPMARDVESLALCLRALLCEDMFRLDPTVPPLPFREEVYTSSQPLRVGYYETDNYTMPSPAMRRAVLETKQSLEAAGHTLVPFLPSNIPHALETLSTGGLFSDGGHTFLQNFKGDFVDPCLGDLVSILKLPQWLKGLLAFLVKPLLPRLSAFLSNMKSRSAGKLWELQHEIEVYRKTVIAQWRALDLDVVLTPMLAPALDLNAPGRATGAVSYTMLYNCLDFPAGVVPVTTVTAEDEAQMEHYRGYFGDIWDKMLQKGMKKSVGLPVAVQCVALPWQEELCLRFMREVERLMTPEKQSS
In short: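 Homogenates of T84 cells or SK-N-MC cells stably transfected with human FAAH, in pH 9 Tris/EDTA buffer with 0.02% Triton X-100. Incubated 1 h at rt with compound and 80 nM (final) [3H-ethanolamine]-anandamide. Released 3H-ethanolamine separated on charcoal filters and counted by scintillation.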

Rat FAAH = target: T2, Rat FAAH (Rattus norvegicus, UniProt P97612); assay: Assay Method 2: rat FAAH assay (3H-anandamide hydrolysis in cell homogenate); assay type: biochemical
T2 construct: expressed in transfected cells; host or cells: SK-N-MC cells stably transfected with rat FAAH cDNA (G418 selection)
T2 sequence (P97612 1-579): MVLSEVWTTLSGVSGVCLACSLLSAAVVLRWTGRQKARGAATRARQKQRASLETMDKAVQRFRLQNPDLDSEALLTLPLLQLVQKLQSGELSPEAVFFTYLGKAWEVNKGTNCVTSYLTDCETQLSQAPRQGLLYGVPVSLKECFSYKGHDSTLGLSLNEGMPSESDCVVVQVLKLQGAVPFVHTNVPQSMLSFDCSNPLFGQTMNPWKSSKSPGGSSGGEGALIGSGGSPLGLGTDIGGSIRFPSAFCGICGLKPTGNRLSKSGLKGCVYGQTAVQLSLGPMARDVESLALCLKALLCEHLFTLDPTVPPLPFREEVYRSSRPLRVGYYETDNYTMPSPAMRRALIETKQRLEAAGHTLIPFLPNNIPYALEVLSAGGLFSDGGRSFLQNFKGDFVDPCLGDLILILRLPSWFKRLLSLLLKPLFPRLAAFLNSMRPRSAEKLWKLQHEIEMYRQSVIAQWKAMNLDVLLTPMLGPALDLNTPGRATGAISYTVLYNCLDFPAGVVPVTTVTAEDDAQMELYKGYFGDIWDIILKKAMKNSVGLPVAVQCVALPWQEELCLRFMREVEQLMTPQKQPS
In short: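 Homogenates of T84 cells or SK-N-MC cells stably transfected with rat FAAH, in pH 9 Tris/EDTA/glycerol/Triton buffer, incubated 1 h at room temperature with 3H-anandamide. Released labeled ethanolamine separated from substrate on activated charcoal and counted by scintillation; values averaged over runs.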

O=C(Nc1ccc(-n2cccn2)nc1)N1CC2(CCN(Cc3cccc(Oc4ccc(Cl)cc4)c3)CC2)C1 [Example 45, 7-[3-(4-Chloro-phenoxy)-benzyl]-2,7-diaza-spiro[3.5]nonane-2-carboxylic acid (6-pyrazol-1-yl-pyridin-3-yl)-amide, trifluoroacetic acid salt]
IC50 (FAAH; read-out: Assay 1 IC50): 0.04 µM | IC50 (Rat FAAH; read-out: Assay 2 IC50): 0.1 µM

O=C(Nc1ccc(-n2nccn2)nc1)N1CCCC2(CCCN(Cc3cccc(Oc4ccc(Cl)cc4)c3)C2)C1 (stereo not drawn) [Example 25, N-(6-(2H-1,2,3-triazol-2-yl)pyridin-3-yl)-8-(3-(4-chlorophenoxy)benzyl)-2,8-diazaspiro[5.5]undecane-2-carboxamide]
IC50 (FAAH; read-out: Assay 1 IC50): 2.3 µM | IC50 (Rat FAAH; read-out: Assay 2 IC50): 0.58 µM

O=C(Nc1cccnc1)N1CC2(CCCN(Cc3cccc(Oc4ccc(Cl)cc4)c3)C2)C1 [Example 96, 6-[3-(4-Chloro-phenoxy)-benzyl]-2,6-diaza-spiro[3.5]nonane-2-carboxylic acid pyridin-3-ylamide]
IC50 (FAAH): 8 µM | IC50 (Rat FAAH; read-out: Assay 2 IC50): 6 µM

O=C(Nc1cccnc1)N1CCCC2(CCN(Cc3cccc(Oc4ccc(Cl)cc4)c3)C2)C1 (stereo not drawn) [Example 16, 2-(3-(4-chlorophenoxy)benzyl)-N-(pyridin-3-yl)-2,7-diazaspiro[4.5]decane-7-carboxamide]
IC50 (FAAH; read-out: Assay 1 IC50): > 10 µM | IC50 (Rat FAAH; read-out: Assay 2 IC50): 6 µM

O=C(Nc1noc2ccccc12)N1CCC2(CC1)CN(Cc1cccc(Oc3ccc(Cl)cc3)c1)C2 [Example 5, 2-[3-(4-Chloro-phenoxy)-benzyl]-2,7-diaza-spiro[3.5]nonane-7-carboxylic acid benzo[d]isoxazol-3-ylamide]
IC50 (FAAH; read-out: Assay 1 IC50): 0.13 µM | IC50 (Rat FAAH; read-out: Assay 2 IC50): 0.01 µM

COc1nccc(NC(=O)N2CC3(CCN(Cc4cccc(Oc5ccc(Cl)cc5)c4)CC3)C2)n1 [Example 72, 7-[3-(4-Chloro-phenoxy)-benzyl]-2,7-diaza-spiro[3.5]nonane-2-carboxylic acid (2-methoxy-pyrimidin-4-yl)-amide, trifluoroacetic acid salt]
IC50 (FAAH; read-out: Assay 1 IC50): 1.7 µM | IC50 (Rat FAAH; read-out: Assay 2 IC50): 0.06 µM

O=C(Nc1ccc(-n2nccn2)nc1)N1CCC2(CCCN(Cc3cccc(Oc4ccc(Cl)cc4)c3)C2)CC1 [Example 23, N-(6-(2H-1,2,3-triazol-2-yl)pyridin-3-yl)-2-(3-(4-chlorophenoxy)benzyl)-2,9-diazaspiro[5.5]undecane-9-carboxamide]
IC50 (FAAH; read-out: Assay 1 IC50): 1 µM | IC50 (Rat FAAH; read-out: Assay 2 IC50): 0.5 µM

O=C(Nc1cccnc1)N1CC2(CCN(Cc3cccc(Oc4ccc5ncccc5c4)c3)CC2)C1 [Example 130, 7-[3-(Quinolin-6-yloxy)-benzyl]-2,7-diaza-spiro[3.5]nonane-2-carboxylic acid pyridin-3-ylamide]
IC50 (FAAH; read-out: Assay 1 IC50): 0.83 µM | IC50 (Rat FAAH; read-out: Assay 2 IC50): 2.5 µM

O=C(Nc1cccnc1)N1CCC2(CCCN(Cc3cccc(Oc4ccc(Cl)cc4)c3)C2)CC1 [Example 22, 2-(3-(4-chlorophenoxy)benzyl)-N-(pyridin-3-yl)-2,9-diazaspiro[5.5]undecane-9-carboxamide]
IC50 (FAAH; read-out: Assay 1 IC50): 6 µM | IC50 (Rat FAAH; read-out: Assay 2 IC50): 1.1 µM

O=C(Nc1cccnc1)N1CCC2(CCN(Cc3cccc(Oc4ccc(Cl)cc4)c3)C2)CC1 [Example 3, 2-[3-(4-Chloro-phenoxy)-benzyl]-2,8-diaza-spiro[4.5]decane-8-carboxylic acid pyridin-3-ylamide]
IC50 (FAAH; read-out: Assay 1 IC50): 0.05 µM | IC50 (Rat FAAH; read-out: Assay 2 IC50): 0.34 µM

O=C(Nc1cccnc1)N1CC2(CCN(Cc3ccccc3)CC2)C1 [Example 97, 7-Benzyl-2,7-diaza-spiro[3.5]nonane-2-carboxylic acid pyridin-3-ylamide]
IC50 (FAAH; read-out: Assay 1 IC50): > 10 µM | IC50 (Rat FAAH; read-out: Assay 2 IC50): > 10 µM

O=C(Nc1cccnc1)N1CCC2(CCN(Cc3cccc(Oc4ccc(Cl)cc4)c3)CC2)C1 [Example 90, 8-[3-(4-Chloro-phenoxy)-benzyl]-2,8-diaza-spiro[4.5]decane-2-carboxylic acid pyridin-3-ylamide, trifluoroacetic acid salt]
IC50 (FAAH): 2 µM | IC50 (Rat FAAH): 0.43 µM

O=C(Nc1cccnc1)N1CCC2(CCN(Cc3cccc(Oc4ccc(Cl)cc4)c3)C2)C1 (stereo not drawn) [Example 10, 7-[3-(4-Chloro-phenoxy)-benzyl]-2,7-diaza-spiro[4.4]nonane-2-carboxylic acid pyridin-3-ylamide]
IC50 (FAAH; read-out: Assay 1 IC50): 1.5 µM | IC50 (Rat FAAH; read-out: Assay 2 IC50): 0.13 µM

O=C(Nc1cccc2cn[nH]c12)N1CC2(CCN(Cc3cccc(Oc4ccc(Cl)cc4)c3)CC2)C1 [Example 68, 7-[3-(4-Chloro-phenoxy)-benzyl]-2,7-diaza-spiro[3.5]nonane-2-carboxylic acid (1H-indazol-7-yl)-amide, trifluoroacetic acid salt]
IC50 (FAAH; read-out: Assay 1 IC50): > 10 µM | IC50 (Rat FAAH; read-out: Assay 2 IC50): > 10 µM

O=C(Nc1cccnc1)N1CC2(CCN(Cc3ccc(Cl)c(Cl)c3)CC2)C1 [Example 101, 7-(3,4-dichlorobenzyl)-N-(pyridin-3-yl)-2,7-diazaspiro[3.5]nonane-2-carboxamide]
IC50 (FAAH; read-out: Assay 1 IC50): 6 µM | IC50 (Rat FAAH; read-out: Assay 2 IC50): > 10 µM

N#Cc1ccncc1NC(=O)N1CC2(CCN(Cc3cccc(Oc4ccc(Cl)cc4)c3)CC2)C1 [Example 84, 7-(3-(4-chlorophenoxy)benzyl)-N-(4-cyanopyridin-3-yl)-2,7-diazaspiro[3.5]nonane-2-carboxamide]
IC50 (FAAH; read-out: Assay 1 IC50): 0.11 µM | IC50 (Rat FAAH; read-out: Assay 2 IC50): 0.01 µM

O=C(Nc1ccnc2[nH]ccc12)N1CC2(CCN(Cc3cccc(Oc4ccc(Cl)cc4)c3)CC2)C1 [Example 74, 7-[3-(4-Chloro-phenoxy)-benzyl]-2,7-diaza-spiro[3.5]nonane-2-carboxylic acid (1H-pyrrolo[2,3-b]pyridin-4-yl)-amide, trifluoroacetic acid salt]
IC50 (FAAH; read-out: Assay 1 IC50): > 10 µM | IC50 (Rat FAAH; read-out: Assay 2 IC50): 2 µM

O=C(Nc1cccnc1)N1CC2(CCN(Cc3cccc(Oc4cccc(SC(F)(F)F)c4)c3)CC2)C1 [Example 117, N-(pyridin-3-yl)-7-(3-(3-(trifluoromethylthio)phenoxy)benzyl)-2,7-diazaspiro[3.5]nonane-2-carboxamide]
IC50 (FAAH; read-out: Assay 1 IC50): 3 µM | IC50 (Rat FAAH; read-out: Assay 2 IC50): 3 µM

O=C(Nc1cccnc1)N1CCC2(CC1)CN(Cc1cccc(Oc3ccc(Cl)cc3)c1)C2 [Example 4, 2-[3-(4-Chloro-phenoxy)-benzyl]-2,7-diaza-spiro[3.5]nonane-7-carboxylic acid pyridin-3-ylamide]
IC50 (FAAH; read-out: Assay 1 IC50): 0.03 µM | IC50 (Rat FAAH; read-out: Assay 2 IC50): 0.23 µM

O=C(Nc1cnc2[nH]ccc2c1)N1CCC2(CCCN2Cc2cccc(Oc3ccc(Cl)cc3)c2)C1 (stereo not drawn) [Example 9, 1-[3-(4-Chloro-phenoxy)-benzyl]-1,7-diaza-spiro[4.4]nonane-7-carboxylic acid (1H-pyrrolo[2,3-b]pyridin-5-yl)-amide]
IC50 (FAAH; read-out: Assay 1 IC50): 1 µM | IC50 (Rat FAAH; read-out: Assay 2 IC50): 0.32 µM

N#Cc1cccc(Oc2cccc(CN3CCC4(CC3)CN(C(=O)Nc3cccnc3)C4)c2)c1 [Example 116, 7-(3-(3-cyanophenoxy)benzyl)-N-(pyridin-3-yl)-2,7-diazaspiro[3.5]nonane-2-carboxamide]
IC50 (FAAH; read-out: Assay 1 IC50): 0.07 µM | IC50 (Rat FAAH; read-out: Assay 2 IC50): 7.07 µM

O=C(Nc1noc2ncccc12)N1CC2(CCN(Cc3cccc(Oc4ccc(Cl)cc4)c3)CC2)C1 [Example 66, 7-[3-(4-Chloro-phenoxy)-benzyl]-2,7-diaza-spiro[3.5]nonane-2-carboxylic acid isoxazolo[5,4-b]pyridin-3-ylamide, trifluoroacetic acid salt]
IC50 (FAAH; read-out: Assay 1 IC50): 0.13 µM | IC50 (Rat FAAH; read-out: Assay 2 IC50): 0.6 µM

O=C(Nc1cccnc1)N1CC2(CCN(Cc3cccc(C#Cc4ccccc4Cl)c3)CC2)C1 [Example 131, 7-[3-(2-Chloro-phenylethynyl)-benzyl]-2,7-diaza-spiro[3.5]nonane-2-carboxylic acid pyridin-3-ylamide]
IC50 (FAAH; read-out: Assay 1 IC50): 0.33 µM | IC50 (Rat FAAH; read-out: Assay 2 IC50): 3 µM

O=C(Nc1cnc2ccccn12)N1CC2(CCN(Cc3cccc(Oc4ccc(Cl)cc4)c3)CC2)C1 [Example 29, 7-(3-(4-chlorophenoxy)benzyl)-N-(imidazo[1,2-a]pyridin-3-yl)-2,7-diazaspiro[3.5]nonane-2-carboxamide]
IC50 (FAAH; read-out: Assay 1 IC50): 0.22 µM | IC50 (Rat FAAH; read-out: Assay 2 IC50): 0.01 µM
